One experiment has as its system HIV-Bal in HFA. In words: Cytokine pre-stimulation and HIV-Bal replication in human fetal astrocytes, p24 ELISA. The note with it: 24 h pre-stimulation, p24 day 7. The format is cell-based. On the procedure: (§1) U87MG (A) and HFA (B) were pre-stimulated with increasing doses of either GM-CSF or IFNγ for 24 h followed by HIV-BAL infection for 24 hours. HIV replication was determined by measuring HIV p24 levels by ELISA seven days post-infection. The dotted line represents basal level of HIV infection of astrocytes without cytokine pre-treatment. Data is representative of three experiments performed in quadruplicate. Error bars represent standard deviations of the mean. Asterisks denote significant values (p<0.05) in comparison to untreated cultures as evaluated by analysis of variance.
(§2) To determine if pre-stimulation of astrocytes primes astrocytes, for productive HIV infection, U87MG and HFA were pre-treated for 24 hours with TNFγ, GM-CSF, or IFNγ at various concentrations (0-1000 ng/ml) then infected with HIV-Bal at 10 ng of HIV p24/1×10^6 cells for 24 hours. The cells were then washed extensively or trypsinized to remove bound virus and propagated in the presence of the respective cytokine concentration. HIV infection was monitored by p24 ELISA seven days post-infection. […]
(§3) IFN-γ Treatment and HIV Infection. […] HIV infection was monitored at day 7 postinfection by measuring p24 levels by conventional enzyme-linked immunosorbent assay (ELISA) (National Cancer Institute, Frederick, Md.).
A general note: ELISA stands for enzyme-linked immunosorbent assay.

In experiment [1] the test system is CD4, hMR, CCR1, D6 on U87MG. Description: HIV receptor and chemokine co-receptor expression on U87MG by flow cytometry. The format is cell-based, human. On the procedure: (§4) U87MG (A) and HFA (B) were left untreated or treated GM-CSF (50 ng/ml) or IFNγ (100 ng/ml) for 24 h. Expression of receptors on the x-axis was measured by flow cytometry. Isotype refers to mouse IgG. Data is representative of three experiments. Error bars represent standard deviation of the mean. (C). IFNγ up-regulates D6 on U87MG cells. U87MG were left untreated or treated with IFNγ. After 3 days, the cells were immunostained with anti-D6 or isotype antibodies. The first histogram (peak) represents isotype control; the dark shaded histogram represents untreated cultures, and the third histogram (peak) represents IFNγ-treated cultures. Data is typical of quadruplet experiments.
(§5) Because IFNγ was a potent cytokine in inducing HIV infection of astrocytes, it was determined whether IFNγ treatment modulated key HIV receptors CD4, human mannose receptor D6 and co-receptors (CCR1, CCR2, CCR3, CXCR4, and CCR5) for HIV infection. U87MG is human mannose receptor (hMR) […] (FIG. 5). However, hMR was not detected on HFA, which may be regulated by the differentiation stage of the HFA (FIG. 5 (B)). CD4 and hMR expression in both U87MG and HFA was not augmented by IFNγ or GM-CSF (FIG. 5(A)-(B)). […] HFA were positive for CXCR4 (12%), but its expression was not augmented by GM-CSF or IFNγ treatment (FIG. 5B). IFNγ was reported to enhance CXCR4 and CCR5 expression on simian adult astrocytes, which is in contrast to data on human fetal astrocytes highlighting a discrepancy between simian adult and human fetal astrocytes. […] Infection of U87MG and HFA with a T-tropic isolate (IIIB), while it was productive, was not enhanced by cytokine pre-treatment. This may be a consequence of the laboratory adapted HIV IIIB, therefore primary T-tropic or dual tropic strains may still be responsive to IFNγ pre-treatment of astrocytes. Recently, the CC chemokine receptor D6 was identified as a functional co-receptor for primary HIV infection of astrocytes.
A general note: Flow cytometry measures light scatter and fluorescence of single cells or particles in a stream.

For another experiment, the system named is HIV-Bal in U87MG. In words: Cytokine pre-stimulation and HIV-Bal replication in U87MG, p24 ELISA. The format is cell-based. Particulars: pre-stimulation at 10 ng/ml, p24 day 7. On the procedure: as §1, §2, §3
The next experiment concerns CD4, hMR, CXCR4 on HFA. In words: HIV receptor and chemokine co-receptor expression on HFA by flow cytometry. The format is cell-based, human. On the procedure: as §4, §5
In experiment [2] the test system is IFNγ, GM-CSF and TNFγ receptors on U87MG. In words: Cytokine receptor expression on U87MG by flow cytometry. Particulars: 24-hour treatment. The format is cell-based, human. On the procedure: U87MG (A) or HFA (B) were left untreated or treated with GM-CSF (50 ng/ml), IFNγ100 ng/ml) or TNFγ100 ng/ml). […] Percent expression of GM-CSF receptor (R), IFNγR, and TNFγR was measured 24 hours post-stimulation by flow cytometry. Data is representative of three experiments. Error bars represent standard deviations of the mean.
Prior to evaluating if GM-CSF, IFNγ, and TNFγ can augment HIV replication of astrocytes, a question was whether U87MG and HFA express the respective cytokine receptors. U87MG and HFA were treated with or without the respective cytokine for 24 hours and cytokine receptor expression was evaluated by flow cytometry. Approximately 35% of U87MG expressed the IFNγ receptor and a low level of GM-CSF and TNFγ receptors (<8%; FIG. 3A). […] Untreated HFA expressed only low levels of IFNγ receptor (6%) and this expression was abrogated with IFNγ treatment. GM-CSF and TNFγ receptors were not expressed on HFA.

In the next experiment the test system is HIV IIIB. Description: HIV IIIB replication in stimulated PBMCs, p24 ELISA. The format is cell-based. The note with it: ALLN at either 5 or 25, p24 day 7, vs non-ALLN treated. More on the design: dose or concentration left out as unconfirmed.
Another experiment has as its system HIV 302151 (93US151). In words: Primary HIV isolate 302151 replication in stimulated PBMCs, p24 ELISA. Particulars: ALLN at either 5 or 25, p24 day 7, vs non-ALLN treated. The format is cell-based.

Turning to “GM-CSF: cytokine secreted by glial cells; used to pre-stimulate astrocytes”, the entries for the “Induction of HIV replication” value in the experiment on HIV-Bal in HFA and in the experiment with HIV-Bal in U87MG were “no effect” and 5 fold, respectively. Also, the “CD4 and hMR expression” value in experiment [1] is “not augmented”; in the experiment with CD4, hMR, CXCR4 on HFA, “not augmented”. In addition, the “Up-regulation of CCR1 expression” value in experiment [1] (24 h treatment) is on record as “no effect”. In addition, the CXCR4 expression entry in the experiment on CD4, hMR, CXCR4 on HFA (untreated 12%) was “not augmented”. Besides, in experiment [2], the “Effect on respective cytokine receptor expression” value is recorded as “neither GM-CSF nor TNFγ treatments had an effect”.
In the case of “N-acetyl-Leu-Leu-norleucinal [ALLN peptide]”, the “Induction of HIV IIIB replication” value with HIV IIIB is “three”. Moreover, in the experiment with HIV 302151 (93US151), the “Induction of HIV 30215 replication” value was “five-fold”.

The record behind these values is patent US20080193563A1, “HARNESSING WNT SIGNALING TO RESTRICT HIV REPLICATION” (priority 2006, published 2008).
